Measurements: patent US7244734B2, “Hexa- and octahydro-pyrido[1,2-a]pyrazine derivatives with NK1 antagonistic activity” (Solvay Pharmaceuticals B.V., priority 2003, dated 2007)

Columns and labels:
[1] = system: NK1 agonist-induced gerbil foot-tapping; assay: NK1 agonist (GR 73632)-induced gerbil foot-tapping; settings: Meriones unguiculatus, po, 60 min before anaesthesia; GR 73632 i.c.v.; male gerbils; read-out: In vivo antagonism Gerbil foot tapping p.o. ED50
Description: Concentration-response relationships were constructed by plotting cAMP conversion against compound concentration and IC50 values were calculated by four-parameter logistic regression. Antagonist potencies (pA2) values were calculated using: […] in which the IC50 of the test compound was obtained from concentration-effect relationships, [SP] is the concentration of substance P (in mol/l; typically 10 nM), and the EC50 is the potency of substance P at human cloned NK1 receptors. NK1 Agonist—Induced Gerbil Foot-Tapping
Therefore, we have used this model to assess the in vivo activity of the compounds of the invention.
60 min prior to anaesthesia with N2O (0.8 L/min), halothane (3%) and O2 (0.8 L/min) male gerbils (40-60 g; Charles River) received an injection of vehicle or test compound (p.o.). Upon successful narcosis the anaesthetic was adjusted to N2O (0.6 L/min), halothane (1.5%) and O2 (0.6 L/min) and a midline scalp incision made. GR 73632 was infused into the cerebroventricular space (AP−0.5 mm, L−1.2 mm, and vertical−4.5 mm from bregma). Following recovery from anaesthesia (about 3-4 min) the foot tapping response was recorded for 5 minutes. The predefined criterion for antagonism of this response was defined as inhibition of foot tapping for ≧5 min.

[2] = target: T1, human NK1 receptor (Homo sapiens, UniProt P25103); assay: Receptor binding for human NK1 receptors ([3H]-substance P displacement, CHO cell membranes); settings: human NK1 receptor in CHO membranes, read-out: affinity NK-1 binding pKi (converted)
T1 construct: expressed in transfected cells; membranes
T1 sequence (P25103 whole entry): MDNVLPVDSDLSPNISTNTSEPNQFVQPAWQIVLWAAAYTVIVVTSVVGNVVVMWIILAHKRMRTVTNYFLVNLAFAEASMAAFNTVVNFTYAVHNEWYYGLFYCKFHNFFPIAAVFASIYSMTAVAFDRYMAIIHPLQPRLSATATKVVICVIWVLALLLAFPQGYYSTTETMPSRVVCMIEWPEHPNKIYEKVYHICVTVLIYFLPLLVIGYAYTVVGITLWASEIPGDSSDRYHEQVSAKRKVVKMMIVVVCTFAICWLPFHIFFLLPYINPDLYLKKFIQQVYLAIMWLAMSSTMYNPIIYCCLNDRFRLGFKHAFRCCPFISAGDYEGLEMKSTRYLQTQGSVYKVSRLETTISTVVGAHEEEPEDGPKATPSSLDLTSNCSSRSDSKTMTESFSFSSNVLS
Description: Receptor Binding for Human NK1 Receptors
Affinity of the compounds for human NK1 receptors was assessed using radio-receptor binding assays. Membrane preparations were prepared from Chinese Hamster Ovarium fibroblast (CHO) cells in which the human NK1 receptor was stably expressed. Membranes were incubated with [^3H]-substance P in the absence or the presence of specified concentrations of the compounds, diluted in a suitable buffer in presence of peptidase inhibitor for 10 min at 25° C. Separation of bound radioactivity from free was done by filtration over Whatman GF/B glass fiber filters with two 5 sec washings. Bound radioactivity was counted by liquid scintillation counting using a Betaplate counter. Measured radioactivity was plotted against the concentration of the displacing test compound and displacement curves were calculated by four-parameter logistic regression, resulting in IC50 values, i.e. that concentration of displacing compound by which 50% of the radioligand is displaced. Affinity pKI values were calculated by correcting the IC50 values for radioligand concentration and its affinity for the human NK1 receptor according to the Cheng-Prusoff equation: pKi=−log [IC50/(1+S/Kd)] in which the IC50 is as described above, S is the concentration [^3H]-substance P used in the assay expressed in mol/l, and Kd is the equilibrium dissociation constant of [^3H]-substance P for human NK1 receptors (in mol/l). cAMP Measurements

## O=C(c1cc(C(F)(F)F)cc(C(F)(F)F)c1)N1C[C@H]2CCC(c3ccncc3)=CN2C[C@H]1Cc1c[nH]c2ccccc12 [Compound 1, (3R,9aR)-(3,5-bis(trifluoromethyl)phenyl)-[3-(1H-indol-3-ylmethyl)-7-pyridin-4-yl-1,3,4,8,9,9a-hexahydro-pyrido[1,2-a]pyrazin-2-yl]-methanone]
[1]
  ED50: 1.7 mg/kg
[2]
  Ki: 15.8 nM

## O=C(c1cc(C(F)(F)F)cc(C(F)(F)F)c1)N1C[C@H]2CCC(c3cccnc3)=CN2C[C@H]1Cc1c[nH]c2ccccc12 [Compound 2, (3R,9aR)-(3,5-bis(trifluoromethyl)phenyl)-[3-(1H-indol-3-ylmethyl)-7-pyridin-3-yl-1,3,4,8,9,9a-hexahydro-pyrido[1,2-a]pyrazin-2-yl]-methanone]
[2]
  Ki: 20 nM

## O=C(c1cc(C(F)(F)F)cc(C(F)(F)F)c1)N1C[C@H]2CCC(c3ccccn3)=CN2C[C@H]1Cc1c[nH]c2ccccc12 [Compound 3, (3R,9aR)-(3,5-bis(trifluoromethyl)phenyl)-[3-(1H-indol-3-ylmethyl)-7-pyridin-2-yl-1,3,4,8,9,9a-hexahydro-pyrido[1,2-a]pyrazin-2-yl]-methanone]
[1]
  ED50: 2.2 mg/kg
[2]
  Ki: 3.16 nM

## O=C(c1cc(C(F)(F)F)cc(C(F)(F)F)c1)N1C[C@H]2CCC(c3cncnc3)=CN2C[C@H]1Cc1c[nH]c2ccccc12 [Compound 4, (3R,9aR)-(3,5-bis(trifluoromethyl)phenyl)-[3-(1H-indol-3-ylmethyl)-7-pyrimidin-5-yl-1,3,4,8,9,9a-hexahydro-pyrido[1,2-a]pyrazin-2-yl]-methanone]
[2]
  Ki: 7.94 nM

## O=C(c1cc(C(F)(F)F)cc(C(F)(F)F)c1)N1C[C@H]2CCC(c3cnccn3)=CN2C[C@H]1Cc1c[nH]c2ccccc12 [Compound 5, (3R,9aR)-(3,5-bis(trifluoromethyl)phenyl)-[3-(1H-indol-3-ylmethyl)-7-pyrazin-2-yl-1,3,4,8,9,9a-hexahydro-pyrido[1,2-a]pyrazin-2-yl]-methanone]
[2]
  Ki: 2.51 nM

## O=C(c1cc(C(F)(F)F)cc(C(F)(F)F)c1)N1C[C@H]2CCC(c3ncccn3)=CN2C[C@H]1Cc1c[nH]c2ccccc12 [Compound 6, (3R,9aR)-(3,5-bis(trifluoromethyl)phenyl)-[3-(1H-indol-3-ylmethyl)-7-pyrimidin-2-yl-1,3,4,8,9,9a-hexahydro-pyrido[1,2-a]pyrazin-2-yl]-methanone]
[2]
  Ki: 1.58 nM

## O=C(c1cc(C(F)(F)F)cc(C(F)(F)F)c1)N1C[C@H]2CCC(c3nccs3)=CN2C[C@H]1Cc1c[nH]c2ccccc12 [Compound 7, (3R,9aR)-(3,5-bis(trifluoromethyl)phenyl)-[3-(1H-indol-3-ylmethyl)-7-thiazol-2-yl-1,3,4,8,9,9a-hexahydro-pyrido[1,2-a]pyrazin-2-yl]-methanone]
[1]
  ED50: 3.4 mg/kg
[2]
  Ki: 0.631 nM
